From the Kinase Knowledgebase extract (Sharma et al. 2016)

Key:
PIK3CB (Human) = PIK3CB (Human) (UniProt P42338); test: Assessment of PIK3CB Kinase Activity
PIK3CA (human) = PIK3CA (human) (UniProt P42336); test: Assessment of PIK3CA Kinase Activity
PIK3CD (Human) = PIK3CD (Human) (UniProt O00329); test: Assessment of PIK3CD Kinase Activity
PIK3CD (Human), sequence (O00329 whole entry, looked up): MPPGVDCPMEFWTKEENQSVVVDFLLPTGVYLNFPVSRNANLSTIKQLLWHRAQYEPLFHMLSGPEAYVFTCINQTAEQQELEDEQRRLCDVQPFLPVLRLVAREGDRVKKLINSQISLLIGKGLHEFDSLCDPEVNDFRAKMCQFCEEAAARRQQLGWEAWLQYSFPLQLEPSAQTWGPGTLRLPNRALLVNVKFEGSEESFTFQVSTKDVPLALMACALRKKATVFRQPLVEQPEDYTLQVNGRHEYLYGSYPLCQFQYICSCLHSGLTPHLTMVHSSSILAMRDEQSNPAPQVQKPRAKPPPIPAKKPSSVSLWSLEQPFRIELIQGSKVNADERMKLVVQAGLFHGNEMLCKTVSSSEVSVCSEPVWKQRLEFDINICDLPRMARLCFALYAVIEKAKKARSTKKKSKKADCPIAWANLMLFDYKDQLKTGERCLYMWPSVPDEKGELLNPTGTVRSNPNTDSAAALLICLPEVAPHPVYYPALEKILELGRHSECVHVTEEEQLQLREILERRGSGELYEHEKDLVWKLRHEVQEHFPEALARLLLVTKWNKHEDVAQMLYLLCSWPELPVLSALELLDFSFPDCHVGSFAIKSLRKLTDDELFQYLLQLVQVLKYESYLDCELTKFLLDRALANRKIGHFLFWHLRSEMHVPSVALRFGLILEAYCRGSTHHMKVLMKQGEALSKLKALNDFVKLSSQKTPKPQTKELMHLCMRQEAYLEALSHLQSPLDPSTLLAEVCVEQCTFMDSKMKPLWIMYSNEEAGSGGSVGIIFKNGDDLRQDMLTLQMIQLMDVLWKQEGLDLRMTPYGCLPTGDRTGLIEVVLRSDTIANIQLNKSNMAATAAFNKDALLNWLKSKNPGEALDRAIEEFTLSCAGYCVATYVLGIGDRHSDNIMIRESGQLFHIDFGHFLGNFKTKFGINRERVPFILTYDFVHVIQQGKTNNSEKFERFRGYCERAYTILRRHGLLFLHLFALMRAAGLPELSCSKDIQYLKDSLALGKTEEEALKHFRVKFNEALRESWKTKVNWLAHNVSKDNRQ

PIK3CB (Human), sequence (P42338 whole entry, looked up): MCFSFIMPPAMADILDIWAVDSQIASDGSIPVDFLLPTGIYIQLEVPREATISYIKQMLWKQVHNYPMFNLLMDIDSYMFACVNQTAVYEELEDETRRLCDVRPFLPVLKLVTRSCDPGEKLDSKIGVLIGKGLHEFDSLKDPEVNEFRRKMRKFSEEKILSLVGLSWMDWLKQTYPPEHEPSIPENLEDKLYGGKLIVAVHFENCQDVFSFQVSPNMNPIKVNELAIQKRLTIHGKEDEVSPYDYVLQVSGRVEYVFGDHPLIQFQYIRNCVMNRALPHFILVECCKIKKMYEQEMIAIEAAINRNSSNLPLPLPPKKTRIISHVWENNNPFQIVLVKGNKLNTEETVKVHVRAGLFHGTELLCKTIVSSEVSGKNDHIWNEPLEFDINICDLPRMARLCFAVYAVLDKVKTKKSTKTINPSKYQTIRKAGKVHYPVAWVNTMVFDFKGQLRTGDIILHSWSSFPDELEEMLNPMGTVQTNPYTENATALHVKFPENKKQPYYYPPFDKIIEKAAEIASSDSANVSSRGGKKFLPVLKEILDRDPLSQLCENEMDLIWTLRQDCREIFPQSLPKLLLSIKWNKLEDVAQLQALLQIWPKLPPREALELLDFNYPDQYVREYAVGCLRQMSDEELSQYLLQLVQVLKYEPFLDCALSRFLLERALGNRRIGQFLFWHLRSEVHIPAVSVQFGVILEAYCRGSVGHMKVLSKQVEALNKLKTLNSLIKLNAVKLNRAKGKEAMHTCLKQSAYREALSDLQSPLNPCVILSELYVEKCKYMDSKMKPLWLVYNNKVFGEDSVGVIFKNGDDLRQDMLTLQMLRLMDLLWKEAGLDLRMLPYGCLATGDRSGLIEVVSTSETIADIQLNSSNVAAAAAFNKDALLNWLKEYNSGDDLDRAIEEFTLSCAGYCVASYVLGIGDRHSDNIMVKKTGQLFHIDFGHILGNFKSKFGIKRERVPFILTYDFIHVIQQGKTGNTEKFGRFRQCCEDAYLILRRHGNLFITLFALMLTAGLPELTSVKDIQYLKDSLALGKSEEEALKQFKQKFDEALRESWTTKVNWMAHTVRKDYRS
PIK3CA (human), sequence (P42336 whole entry, looked up): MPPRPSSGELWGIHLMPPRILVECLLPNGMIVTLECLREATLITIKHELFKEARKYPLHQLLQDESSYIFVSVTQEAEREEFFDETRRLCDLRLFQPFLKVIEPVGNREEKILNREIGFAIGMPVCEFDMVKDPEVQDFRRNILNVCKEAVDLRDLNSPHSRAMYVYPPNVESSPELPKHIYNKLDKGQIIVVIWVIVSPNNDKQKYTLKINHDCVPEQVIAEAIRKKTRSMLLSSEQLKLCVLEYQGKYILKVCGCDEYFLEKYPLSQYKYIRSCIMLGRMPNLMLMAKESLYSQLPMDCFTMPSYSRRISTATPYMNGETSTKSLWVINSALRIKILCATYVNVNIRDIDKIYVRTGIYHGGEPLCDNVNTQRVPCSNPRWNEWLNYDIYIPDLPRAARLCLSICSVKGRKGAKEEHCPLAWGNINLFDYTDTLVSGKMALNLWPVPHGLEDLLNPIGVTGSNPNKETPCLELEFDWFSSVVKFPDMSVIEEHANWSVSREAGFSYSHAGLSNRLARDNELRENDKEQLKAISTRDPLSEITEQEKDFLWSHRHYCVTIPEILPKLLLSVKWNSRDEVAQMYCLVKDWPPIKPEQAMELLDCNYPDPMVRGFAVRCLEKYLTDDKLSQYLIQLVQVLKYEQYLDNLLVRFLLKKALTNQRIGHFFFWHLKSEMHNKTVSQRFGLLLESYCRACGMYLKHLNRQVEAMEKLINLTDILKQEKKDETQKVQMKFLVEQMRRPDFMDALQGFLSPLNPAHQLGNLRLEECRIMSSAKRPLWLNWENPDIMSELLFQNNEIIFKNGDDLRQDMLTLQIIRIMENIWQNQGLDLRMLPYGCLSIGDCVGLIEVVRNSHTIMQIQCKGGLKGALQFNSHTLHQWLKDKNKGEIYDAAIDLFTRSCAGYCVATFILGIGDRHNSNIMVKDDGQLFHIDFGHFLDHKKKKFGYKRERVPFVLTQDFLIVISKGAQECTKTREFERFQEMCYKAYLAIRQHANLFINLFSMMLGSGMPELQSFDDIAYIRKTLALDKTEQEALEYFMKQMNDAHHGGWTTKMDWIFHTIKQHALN

Row | SMILES | IC50 (PIK3CB (Human)) [nM] | IC50 (PIK3CA (human)) [nM] | IC50 (PIK3CD (Human)) [nM]
1 | CCNC(=O)c1cc(-c2ccc3ncc4c(c3c2)n(-c2c(C)nn(C)c2C)c(=O)n4C)cnc1NC | 603 | 81 | 39
2 | CCNc1cc(-c2ccc3ncc4c(c3c2)n(-c2c(C)noc2C)c(=O)n4C)cnc1Cl | 101 | 139 | 22
3 | CCc1ncc(-c2ccc3ncc4c(c3c2)n(-c2cn(C)nc2C)c(=O)n4C)cc1OC(C)C | 73 | 41 | 18

These reach a lower IC50 (PIK3CA (human)). Values come first.

Row | IC50 (PIK3CB (Human)) [nM] | IC50 (PIK3CA (human)) [nM] | IC50 (PIK3CD (Human)) [nM] | SMILES
4 | 5 | 8 | 5 | Cn1cc(-n2c(=O)n(C)c3cnc4ccc(-c5cncc(C(C)(C)O)c5)cc4c32)c(Cl)n1
5 | – | 27 | 75 | CCn1cc(-n2c(=O)n(C)c3cnc4ccc(-c5ccc(-n6cccn6)cc5)cc4c32)c(C)n1
6 | 24 | 15 | 5 | COCc1ncc(-c2ccc3ncc4c(c3c2)n(-c2cn(C)nc2Cl)c(=O)n4C)cc1OC
7 | 30 | 4 | 5 | CCn1cc(-n2c(=O)n(C)c3cnc4ccc(-c5cnc(C)c(OC(C)C)c5)cc4c32)c(C)n1
8 | 7 | 9 | 3 | COCc1cc(-c2ccc3ncc4c(c3c2)n(-c2cn(C)nc2Cl)c(=O)n4C)cnc1N
